Reference: patent US4039574A, “13-Hydroxy-15-deoxy-prostaglandins” (American Cyanamid Company, priority 1975, dated 1977)

System: basal gastric acid secretion
Assay: Inhibition of Gastric Acid Secretion in the Acute Gastric Fistula Rat (basal gastric acid secretion)
Type: in vivo, Female Sprague-Dawley rats
Details: 10 mg./kg., vs concurrent vehicle control

| Structure (SMILES) | % inhibition of total acid output after 60 minutes (intraduodenal route) | % inhibition of total acid output after 120 minutes (intraduodenal route) | % inhibition of total acid output after 60 minutes (oral route of administration) | % inhibition of total acid output after 120 minutes (oral route of administration) |
| --- | --- | --- | --- | --- |
| CCCCCCCC(O)[C@@H]1CCC(=O)[C@H]1CCCCCCC(=O)O (relative stereo) [trans-2-(6-carboxyhexyl)-3-(1-hydroxyoctyl)cyclopentanone] | 29% | 78% | – | – |
| CCCCCCCC(O)C1C(O)CC(=O)C1CC=CCCCC(=O)O (stereo not drawn) [2α-(6-carboxyhex-2-cis-enyl)-3β-(1-hydroxyoctyl)-4-hydroxycy] [2α-(6-carboxyhex-2-cis-enyl)-3β-(1-hydroxyoctyl)-4-hydroxycyclopentanone] | 81% | 20% | – | – |
| CCCCCCCC(O)C1C(O)CC(=O)C1CC=CCCCC(=O)O (stereo not drawn) [2β-(6-carboxyhex-2-cis-enyl)-3β-(1-hydroxyoctyl)-4-hydroxycy] [2β-(6-carboxyhex-2-cis-enyl)-3β-(1-hydroxyoctyl)-4-hydroxycyclopentanone] | 100% | 94% | 1% | 56% |
